# Assays:
# human antithrombin = tested on: T1, human antithrombin; assay: continuous chromogenic assay: fondaparinux-catalyzed inhibition of factor Xa by antithrombin; format: biochemical; conditions: antithrombin pre-incubated with 50 μM annonacinone 20 min 37 °C; control buffer 7.9 × 10^−3
# T1 construct: purchased LFB (Aclotin)
# Protocol: 5 μM human α1-antitrypsin (Sigma) or human antithrombin (Aclotin®, LFB) were incubated with 50 μM annonacinone (or 0.5% DMSO in reaction buffer as control) for 20 min at 37 °C. The mixtures containing α1-antitrypsin were diluted in N-Methoxysuccinyl-Ala-Ala-Pro-Val p-nitroanilide (Sigma) containing solution and substrate hydrolysis kinetic was triggered by addition of neutrophil elastase (Sigma) to a final volume of 100 μL containing 13 nM α1-antitrypsin, 130 nM annonacinone, 82 μM chromogenic substrate and 5 nM neutrophil elastase. The mixtures containing antithrombin were diluted in fondaparinux (Arixtra®, GlaxoSmithKline) and CS-11(22)-FXa (Hyphen Biomed) containing solution and substrate hydrolysis kinetic was triggered by addition of factor Xa (Stago BNL) to a final volume of 100 μL containing 51 nM antithrombin, 510 nM annonacinone, 200 μM chromogenic substrate, 5 μM fondaparinux and 2 nM factor Xa.
# FeCl3-occluded venules = assay: murine model of rtPA-induced thrombolysis by intravital microscopy; format: in vivo, mice
# Protocol: Thrombolysis was evaluated in an in vivo mouse model according to the method previously described[18] with modifications. Briefly, platelets of anesthetized mice were fluorescently labeled in vivo by injection of rhodamine 6G (3.3 mg/kg) into the retro-orbital plexus, then thrombus formation was induced by topical deposition on the mesenteric vessels of ferric chloride solution (FeCl3; 15%) in 4- to 5-week-old mice. Thrombus growth was monitored in real-time with an inverted epifluorescent microscope (x10) (Nikon Eclipse TE2000U). Within the 10 minutes after total occlusion of the vessel, the effect of annonacinone was evaluated on the efficiency of rtPA-induced thrombolysis by applying directly on the occluded vessels a thrombolytic cocktail (40 μL) composed of 40 μM rtPA (Actilyse®), 200 μM Argatroban (Arganova®) and 0.2% DMSO or 20 μM annonacinone. The incidence of the recanalization, defined as a partial or complete restoration of flow associated to a decrease of more than 50% of the initial thrombus size, and the evolution of thrombus size were determined during 1 hour.
# PAI-1 = tested on: T2, PAI-1; assay: elastase mediated cleavage of PAI-1 (latency transition) on SDS-PAGE; format: biochemical, human; conditions: up to 50 μM
# T2 construct: purchased Stago BNL (Asnières sur Seine, FR)
# Protocol: Selective cleavage of active PAI-1 by elastase was observed on SDS-PAGE. PAI-1 (5 μL, 2 μM) was incubated with or without compounds (200 μM, 5 μL, 5% DMSO) for 15 min at 37 °C. Elastase (5 μL, 1.4 μM) was then added and further incubated for 15 min at 37 °C. Reaction was stopped by addition of 4X loading buffer containing SDS and BME followed by immediate boiling. Samples were then analyzed on SDS-PAGE followed by silver staining.
# tPA = tested on: T3, tPA; assay: tPA-catalyzed substrate hydrolysis without PAI-1 (control); format: biochemical, human; conditions: control without PAI-1
# T3 construct: purchased Stago BNL (Asnières sur Seine, FR)
# Protocol: Compounds from our local collection BioCIS and from the Prestwick compound library (Prestwick chemicals, Illkirch, FR), a collection containing only FDA approved drugs (around 4000 compounds in total) were tested in a chromogenic assay measuring the […] Compounds (20 μL, final concentration 50 μM, 1% DMSO) were dispensed in a 96 well half area Greiner plate. […] At the end of pre-incubation time, 90 μL of the mixture were added to another 96 well half area plate containing 10 μL tPA (final concentration 10 nM). The kinetic was then measured at 405 nm for 45 min at 37 °C in an Envision microplate reader. Progress curves were fitted using the pseudo first order equation to determine the apparent rate constant k.
structure (smiles),measurement,setting,value
CCCCCCCCCCCC[C@@H](O)[C@H]1CC[C@H]([C@H](O)CCCCC(=O)CCCCC[C@@H](O)CC2=C[C@H](C)OC2=O)O1 [Annonacinone],kapp of factor Xa inhibition by fondaparinux-bound antithrombin,human antithrombin,0.0083 s⁻¹
same,incidence of recanalization,"FeCl3-occluded venules; 20 μM annonacinone applied locally with rtPA 40 μM and Argatroban 200 μM, 1 hour, DMSO 0.2% control 28%",71%
same,total number of vessels recanalized per group of 7 mice,"FeCl3-occluded venules; 20 μM annonacinone with rtPA 40 μM and Argatroban 200 μM, 1 hour, DMSO control 2/7",5/7
same,decrease of thrombus size from initial size,"FeCl3-occluded venules; 35 minutes of treatment, 20 μM annonacinone with rtPA and Argatroban, n = 7, DMSO 3.4 ± 8.5%",29.7 ± 7.7%
same,effect on latency transition of PAI-1,PAI-1,No effects
same,effect on tPA-catalyzed substrate hydrolysis without PAI-1,tPA,no effect
